The source of these data is ChEMBL document CHEMBL1201862, “PubChem BioAssay data set” (2004).

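Step 1: Grow cells in 96-well plates. Step 2: Expose to compound for 48 hours at 5 concentrations. Step 3: Interpolate endpoints linearly; if unreached, use highest concentration. GI50 = concentration required for 50% inhibition of growth.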 The source made the active and inactive calls. Rule as the data show it: active = GI50 up to about 1.1 µM and inactive = higher.

Some test systems named below: LOX IMVI; SK-MEL-5; SN12C; SNB-78; A549; CCRF-CEM; NCI-H226; SNB-75; A498; SF-295; SNB-19; ACHN; OVCAR-5; COLO 205; PC-3; HOP-92; MCF7; RPMI-8226; SR; HCC 2998.
What all share (experiment): growth of human tumour cells (NCI), 48 h

As to `O=c1c2cc3c(=O)n(CCc4ccccc4CO)c(=O)c3cc2c(=O)n1CCc1ccccc1CO`, the GI50 with LOX IMVI, with SK-MEL-5, in the assay with SN12C, in the assay on SNB-78, in the assay with A549 and in the assay on CCRF-CEM was > 100 µM (inactive) throughout. The GI50 in the assay with NCI-H226 is > 100 µM (inactive); in the assay on SNB-75, > 100 µM (inactive); in the assay on A498 it was > 100 µM (inactive); with SF-295, 46.6 µM (inactive); with SNB-19 it was > 100 µM (inactive); in the assay with ACHN it was > 100 µM (inactive).

Take `N#CC(C#N)=C1/C(=C/C=C/C=C/C=C/c2ccc(N3CCCCC3)s2)S(=O)(=O)c2ccccc21`: the GI50 with OVCAR-5 was > 100 µM (inactive); in the assay with COLO 205 it was > 100 µM (inactive); in the assay with PC-3, > 100 µM (inactive); with LOX IMVI it was > 100 µM (inactive); in the assay with HOP-92 it was 95.9 µM (inactive); in the assay with SK-MEL-5, > 100 µM (inactive). The GI50 in the assay with SN12C is > 100 µM (inactive); in the assay on MCF7 it was > 100 µM (inactive); with RPMI-8226, 36.4 µM (inactive); with A549, > 100 µM (inactive); in the assay on SR it was 50.5 µM (inactive); in the assay with CCRF-CEM, 71.6 µM (inactive). The GI50 with NCI-H226 is > 100 µM (inactive); in the assay with HCC 2998, > 100 µM (inactive); in the assay on SNB-75, > 100 µM (inactive); in the assay on A498 it was > 100 µM (inactive); in the assay with SF-295, > 100 µM (inactive); in the assay with SNB-19 it was 45.3 µM (inactive). In addition, the GI50 in the assay with ACHN was > 100 µM (inactive).

Take `O=C(c1c(F)c(F)c(F)c(F)c1F)n1c(O)nc2ccccc21`: the GI50 was 15.7 µM (inactive) in the assay with OVCAR-5; 12.9 µM (inactive) in the assay with COLO 205; 7.93 µM (inactive) in the assay on PC-3; 3.83 µM (inactive) with LOX IMVI; 2.88 µM (inactive) with HOP-92; 15.2 µM (inactive) in the assay on SK-MEL-5. Moreover, the GI50 in the assay on SN12C was 14.1 µM (inactive); in the assay on MCF7 it was 4.04 µM (inactive); with RPMI-8226, 3.03 µM (inactive); in the assay with A549, 16.7 µM (inactive); with SR it was 2.62 µM (inactive); with CCRF-CEM, 4.53 µM (inactive). The GI50 in the assay with NCI-H226 was 17.3 µM (inactive); in the assay on HCC 2998, 3.56 µM (inactive); in the assay on SNB-75, 16.5 µM (inactive); in the assay on A498 it was 19.1 µM (inactive); with SF-295, 16.4 µM (inactive); with SNB-19, 14.9 µM (inactive). In addition, in the assay with ACHN, the GI50 was 16.1 µM (inactive).

As for `CO/C(=N\N=C\c1cccc(C(F)(F)F)c1)c1ccncc1`, the GI50 in the assay on OVCAR-5 is 32.5 µM (inactive); with COLO 205, 13.5 µM (inactive); with PC-3, 40.7 µM (inactive); with LOX IMVI, 7.76 µM (inactive); in the assay on HOP-92, 23.3 µM (inactive); in the assay with SK-MEL-5, 11.4 µM (inactive). In addition, the GI50 with SN12C was 3.67 µM (inactive); in the assay with MCF7, 2.52 µM (inactive); in the assay on RPMI-8226 it was 2.37 µM (inactive); in the assay with A549, 8.09 µM (inactive); in the assay on SR it was 5.75 µM (inactive); in the assay on CCRF-CEM, 4.62 µM (inactive). Moreover, the GI50 is 3.56 µM (inactive) with NCI-H226; 6.41 µM (inactive) in the assay with HCC 2998; 15.5 µM (inactive) in the assay with SNB-75; 9.91 µM (inactive) with A498; 1.76 µM (inactive) in the assay with SF-295; 9.08 µM (inactive) in the assay with SNB-19. The GI50 with ACHN is 8.13 µM (inactive).

As for `C[C@@H]1C[C@H]2CC[C@H](O2)[C@H](C)C(=O)O[C@@H](C)C[C@@H]2CC[C@@H](O2)[C@@H](C)C(=O)O[C@H](C)C[C@H]2CC[C@H](O2)[C@H](C)C(=O)O[C@@H](C)C[C@@H]2CC[C@@H](O2)[C@@H](C)C(=O)O1`, the GI50 in the assay with OVCAR-5 was 0.568 µM (active); with COLO 205, 0.155 µM (active); in the assay on PC-3, 0.218 µM (active); with LOX IMVI, 0.305 µM (active); with HOP-92 it was 0.183 µM (active); in the assay on SK-MEL-5 it was 0.154 µM (active). Besides, the GI50 in the assay with SN12C was 0.366 µM (active); in the assay with MCF7, 0.326 µM (active); in the assay with RPMI-8226, 0.0769 µM (active); in the assay with A549, 0.344 µM (active); in the assay with SR, 0.495 µM (active); in the assay with CCRF-CEM, 0.292 µM (active). The GI50 is 0.436 µM (active) in the assay on NCI-H226; 1.1 µM (active) in the assay with HCC 2998; 0.338 µM (active) in the assay with SNB-75; 0.859 µM (active) with A498; 0.242 µM (active) in the assay with SF-295; 0.366 µM (active) with SNB-19. For the same compound, the GI50 in the assay on ACHN is 0.212 µM (active).

On to `C[C@H](CCc1nc(C#N)c(N)o1)[C@H]1CC[C@H]2[C@@H]3CCC4C[C@@H](O)CC[C@]4(C)[C@H]3C[C@@H](O)[C@]12C` (stereo not given in full), for which the GI50 is 18.6 µM (inactive) in the assay with OVCAR-5; 12.7 µM (inactive) in the assay on COLO 205; 4.33 µM (inactive) in the assay with PC-3; 7.71 µM (inactive) in the assay on LOX IMVI; 14.4 µM (inactive) in the assay on HOP-92; 12.6 µM (inactive) in the assay on SK-MEL-5. The GI50 in the assay on SN12C is 10.7 µM (inactive); in the assay on MCF7, 14.6 µM (inactive); in the assay with RPMI-8226 it was 1.73 µM (inactive); in the assay with A549, 5.89 µM (inactive); with SR, 3.05 µM (inactive); with CCRF-CEM, 0.143 µM (active). For the same compound, the GI50 in the assay on NCI-H226 was 8.38 µM (inactive); in the assay with HCC 2998, 16.6 µM (inactive); with SNB-75 it was 10.3 µM (inactive); with A498, 18.7 µM (inactive); in the assay on SF-295 it was 14.4 µM (inactive); in the assay on SNB-19, 16.4 µM (inactive). For the same compound, the GI50 with ACHN is 14.9 µM (inactive).

Consider `CCOC(=O)C1CCCCN1CCc1c[nH]c2ccccc12` (stereo not given), for which the GI50 in the assay with OVCAR-5 was > 100 µM (inactive); in the assay with COLO 205, > 100 µM (inactive); in the assay with PC-3, > 100 µM (inactive); with LOX IMVI, > 100 µM (inactive); in the assay with HOP-92, 16 µM (inactive); with SK-MEL-5, 80.9 µM (inactive). Besides, the GI50 is > 100 µM (inactive) in the assay with SN12C; > 100 µM (inactive) in the assay on MCF7; 84.7 µM (inactive) with RPMI-8226; 74.6 µM (inactive) in the assay with A549; > 100 µM (inactive) in the assay on SR; > 100 µM (inactive) with CCRF-CEM. Moreover, the GI50 in the assay with NCI-H226 was 71.6 µM (inactive); with HCC 2998 it was > 100 µM (inactive); in the assay with SNB-75, > 100 µM (inactive); in the assay with A498 it was 44.1 µM (inactive); in the assay with SF-295 it was 66.2 µM (inactive); in the assay with SNB-19, > 100 µM (inactive). Moreover, the GI50 in the assay with ACHN is > 100 µM (inactive).

Turning to `C=CC(=O)NCCC(=O)OCn1cc(F)c(=O)[nH]c1=O`, the GI50 in the assay on OVCAR-5 is 20.6 µM (inactive); in the assay with COLO 205 it was 1.37 µM (inactive); with PC-3, 9.12 µM (inactive); with LOX IMVI, 4.34 µM (inactive); in the assay on HOP-92, 8.49 µM (inactive); with SK-MEL-5, 3.67 µM (inactive). For the same compound, the GI50 in the assay on SN12C is 0.838 µM (active); with MCF7, 1.2 µM (inactive); in the assay on RPMI-8226 it was 1.75 µM (inactive); with A549, 2.36 µM (inactive); in the assay on SR, 2.12 µM (inactive); in the assay with CCRF-CEM it was 16.7 µM (inactive). In addition, the GI50 with NCI-H226 is 13.3 µM (inactive); in the assay with HCC 2998 it was 0.369 µM (active); with SNB-75, 19.4 µM (inactive); in the assay on A498, 0.456 µM (active); in the assay with SF-295 it was 15.5 µM (inactive); in the assay on SNB-19 it was 39.4 µM (inactive). In addition, the GI50 with ACHN is 5.02 µM (inactive).
